Measurements as given in publication PMC8550792, “Evolution of kinase polypharmacology across HSP90 drug discovery” (Cell Chemical Biology, 2021).
Where two headings read alike, the source gives them in different places.

Experiments:
Assay in all cases: biochemical
Type in all cases: biochemical
382 unique human kinases [1] = target: T1, 382 unique human kinases (Homo sapiens, UniProt Q9UEW8); conditions: STK39/STLK3, 10 uM; for remaining activity at 10 µM: read-out: % Enzyme Activity (relative to DMSO controls)
T1 construct: purchased Reaction Biology (HotSpot contract assay)

382 unique human kinases [2] = target: T2, 382 unique human kinases (Homo sapiens, UniProt Q13043); conditions: MST1/STK4, 10 uM; for remaining activity at 10 µM: read-out: % Enzyme Activity (relative to DMSO controls)
T2 construct: purchased Reaction Biology (HotSpot contract assay)
T2 sequence (Q13043 1-487): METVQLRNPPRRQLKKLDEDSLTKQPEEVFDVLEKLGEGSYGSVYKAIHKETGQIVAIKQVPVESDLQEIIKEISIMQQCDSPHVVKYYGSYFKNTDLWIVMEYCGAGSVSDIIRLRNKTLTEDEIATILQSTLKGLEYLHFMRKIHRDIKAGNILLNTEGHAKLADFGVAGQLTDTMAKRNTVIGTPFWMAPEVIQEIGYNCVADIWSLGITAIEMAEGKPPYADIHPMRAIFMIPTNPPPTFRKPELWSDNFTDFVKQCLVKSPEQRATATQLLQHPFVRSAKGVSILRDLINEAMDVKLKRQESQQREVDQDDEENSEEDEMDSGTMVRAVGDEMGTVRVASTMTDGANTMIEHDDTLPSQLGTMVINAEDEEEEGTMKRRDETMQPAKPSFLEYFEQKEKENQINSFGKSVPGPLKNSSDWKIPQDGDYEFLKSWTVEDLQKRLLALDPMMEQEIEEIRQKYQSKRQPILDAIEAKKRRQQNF

382 unique human kinases [3] = target: T3, 382 unique human kinases (Homo sapiens, UniProt P06493); conditions: for remaining activity at 10 µM: read-out: % Enzyme Activity (relative to DMSO controls)
T3 construct: purchased Reaction Biology (HotSpot contract assay)
T3 sequence (P06493 whole entry): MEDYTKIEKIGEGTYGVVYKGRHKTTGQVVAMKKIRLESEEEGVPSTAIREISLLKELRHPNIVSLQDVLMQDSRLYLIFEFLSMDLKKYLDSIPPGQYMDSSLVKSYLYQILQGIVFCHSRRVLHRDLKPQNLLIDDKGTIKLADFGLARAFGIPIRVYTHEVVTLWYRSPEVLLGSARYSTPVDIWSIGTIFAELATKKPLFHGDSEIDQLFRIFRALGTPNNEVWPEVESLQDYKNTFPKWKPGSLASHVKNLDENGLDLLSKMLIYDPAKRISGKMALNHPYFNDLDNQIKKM

382 unique human kinases [4] = target: T4, 382 unique human kinases (Homo sapiens, UniProt P00533, D761Y); conditions: kinase EGFR (D761Y), compound 10 uM; for remaining activity at 10 µM: read-out: % Enzyme Activity (relative to DMSO controls)
T4 construct: purchased Reaction Biology (HotSpot contract assay)

382 unique human kinases [5] = target: T5, 382 unique human kinases (Homo sapiens, UniProt P30530, R499C); conditions: AXL (R499C), 10 uM; for remaining activity at 10 µM: read-out: % Enzyme Activity (relative to DMSO controls)
T5 construct: purchased Reaction Biology (HotSpot contract assay)
T5 sequence (P30530 26-894 R499C): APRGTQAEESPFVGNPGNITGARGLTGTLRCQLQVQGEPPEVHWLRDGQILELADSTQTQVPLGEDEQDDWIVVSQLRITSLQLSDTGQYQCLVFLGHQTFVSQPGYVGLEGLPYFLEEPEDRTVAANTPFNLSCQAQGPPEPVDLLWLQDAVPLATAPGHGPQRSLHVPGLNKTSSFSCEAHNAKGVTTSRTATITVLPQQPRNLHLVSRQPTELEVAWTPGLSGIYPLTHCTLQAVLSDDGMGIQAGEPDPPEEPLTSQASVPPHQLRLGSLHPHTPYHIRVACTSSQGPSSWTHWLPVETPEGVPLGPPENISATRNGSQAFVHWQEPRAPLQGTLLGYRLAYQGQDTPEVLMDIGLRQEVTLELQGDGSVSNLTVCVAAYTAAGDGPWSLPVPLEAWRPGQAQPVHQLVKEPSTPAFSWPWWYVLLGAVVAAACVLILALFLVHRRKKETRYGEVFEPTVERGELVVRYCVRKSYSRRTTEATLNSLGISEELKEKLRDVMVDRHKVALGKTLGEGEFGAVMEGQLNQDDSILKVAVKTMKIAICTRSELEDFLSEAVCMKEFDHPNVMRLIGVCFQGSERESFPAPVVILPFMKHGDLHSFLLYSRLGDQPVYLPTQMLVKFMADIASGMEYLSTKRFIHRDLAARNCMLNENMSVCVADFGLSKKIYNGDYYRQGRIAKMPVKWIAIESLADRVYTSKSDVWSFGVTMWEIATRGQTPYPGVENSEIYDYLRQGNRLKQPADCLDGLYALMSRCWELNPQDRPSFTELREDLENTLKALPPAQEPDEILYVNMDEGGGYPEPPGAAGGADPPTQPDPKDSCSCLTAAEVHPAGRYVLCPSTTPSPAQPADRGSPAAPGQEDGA

382 unique human kinases [6] = target: T6, 382 unique human kinases (Homo sapiens, UniProt P24723); conditions: PKCeta, 10 uM; for remaining activity at 10 µM: read-out: % Enzyme Activity (relative to DMSO controls)
T6 construct: purchased Reaction Biology (HotSpot contract assay)
T6 sequence (P24723 whole entry): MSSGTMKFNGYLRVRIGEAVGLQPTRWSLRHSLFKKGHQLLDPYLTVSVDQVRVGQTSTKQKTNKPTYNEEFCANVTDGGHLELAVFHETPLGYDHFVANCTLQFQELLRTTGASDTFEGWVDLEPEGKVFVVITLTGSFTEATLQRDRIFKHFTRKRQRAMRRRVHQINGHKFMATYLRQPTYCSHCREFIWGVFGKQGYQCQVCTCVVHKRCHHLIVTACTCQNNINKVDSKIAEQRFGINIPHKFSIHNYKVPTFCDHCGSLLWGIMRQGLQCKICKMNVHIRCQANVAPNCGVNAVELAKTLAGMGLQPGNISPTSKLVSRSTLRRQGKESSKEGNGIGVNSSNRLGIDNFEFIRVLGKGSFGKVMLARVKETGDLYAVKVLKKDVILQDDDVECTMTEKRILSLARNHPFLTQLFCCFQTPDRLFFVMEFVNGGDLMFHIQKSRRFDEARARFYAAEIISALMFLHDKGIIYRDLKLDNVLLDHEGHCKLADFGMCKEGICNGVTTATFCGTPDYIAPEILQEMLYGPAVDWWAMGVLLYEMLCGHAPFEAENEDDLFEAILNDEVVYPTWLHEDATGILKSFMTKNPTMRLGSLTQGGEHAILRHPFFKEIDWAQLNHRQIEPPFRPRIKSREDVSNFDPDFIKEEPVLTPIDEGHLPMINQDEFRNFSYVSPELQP

382 unique human kinases [7] = target: T7, 382 unique human kinases (Homo sapiens, UniProt Q6VAB6, R676S); conditions: KSR2 (R676S), 10 uM; for remaining activity at 10 µM: read-out: % Enzyme Activity (relative to DMSO controls)
T7 construct: purchased Reaction Biology (HotSpot contract assay)
T7 sequence (Q6VAB6 1-950 R676S): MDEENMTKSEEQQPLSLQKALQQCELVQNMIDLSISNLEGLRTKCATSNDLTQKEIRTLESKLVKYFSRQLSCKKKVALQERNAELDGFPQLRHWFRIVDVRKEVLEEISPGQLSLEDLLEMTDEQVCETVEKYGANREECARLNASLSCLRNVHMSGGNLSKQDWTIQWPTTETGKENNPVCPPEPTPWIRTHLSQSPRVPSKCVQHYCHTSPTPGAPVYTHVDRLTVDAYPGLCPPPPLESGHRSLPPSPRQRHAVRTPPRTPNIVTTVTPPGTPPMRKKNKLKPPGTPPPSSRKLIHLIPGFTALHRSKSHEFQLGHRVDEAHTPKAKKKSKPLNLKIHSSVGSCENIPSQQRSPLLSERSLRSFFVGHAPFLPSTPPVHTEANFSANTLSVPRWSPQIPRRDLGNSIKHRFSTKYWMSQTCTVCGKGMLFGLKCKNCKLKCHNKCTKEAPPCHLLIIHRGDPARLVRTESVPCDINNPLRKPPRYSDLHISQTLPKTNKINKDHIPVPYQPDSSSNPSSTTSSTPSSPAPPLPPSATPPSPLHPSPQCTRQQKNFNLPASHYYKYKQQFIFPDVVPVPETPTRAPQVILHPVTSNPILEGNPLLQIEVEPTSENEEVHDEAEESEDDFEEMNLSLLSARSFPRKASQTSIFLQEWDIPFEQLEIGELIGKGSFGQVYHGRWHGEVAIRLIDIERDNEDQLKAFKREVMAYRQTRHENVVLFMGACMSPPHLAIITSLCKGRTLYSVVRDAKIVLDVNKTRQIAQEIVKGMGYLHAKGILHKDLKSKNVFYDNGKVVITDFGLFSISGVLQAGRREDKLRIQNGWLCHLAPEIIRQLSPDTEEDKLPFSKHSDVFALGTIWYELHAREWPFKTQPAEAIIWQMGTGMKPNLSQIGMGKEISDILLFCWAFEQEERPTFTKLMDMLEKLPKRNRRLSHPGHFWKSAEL

382 unique human kinases [8] = target: T8, 382 unique human kinases (Homo sapiens, UniProt P00519, H396P); conditions: ABL1 (H396P), [ATP] 15 µM, compound 10 uM; for remaining activity at 10 µM: read-out: % Enzyme Activity (relative to DMSO controls)
T8 construct: purchased Reaction Biology (HotSpot contract assay)

382 unique human kinases [9] = target: T9, 382 unique human kinases (Homo sapiens, UniProt P00519, E255V); conditions: ABL1 (E255V), [ATP] 10 µM, compound 10 uM; for remaining activity at 10 µM: read-out: % Enzyme Activity (relative to DMSO controls)
T9 construct: purchased Reaction Biology (HotSpot contract assay)

[10] = kinase CDK1/cyclin A, compound 10 uM
[11] = kinase CDK1/cyclin E, compound 10 uM

Row | SMILES | remaining activity at 10 µM (382 unique human kinases [1]) | remaining activity at 10 µM (382 unique human kinases [2]) | remaining activity at 10 µM (382 unique human kinases [3]; CDK1/cyclin B, 10 uM) | remaining activity at 10 µM (382 unique human kinases [3]; [10]) | remaining activity at 10 µM (382 unique human kinases [3]; [11]) | remaining activity at 10 µM (382 unique human kinases [4]) | remaining activity at 10 µM (382 unique human kinases [5]) | remaining activity at 10 µM (382 unique human kinases [6]) | remaining activity at 10 µM (382 unique human kinases [7]) | remaining activity at 10 µM (382 unique human kinases [8]) | remaining activity at 10 µM (382 unique human kinases [9]) | further results
1 | CC(C)c1cc(-c2n[nH]c(=O)n2-c2ccc3c(ccn3C)c2)c(O)cc1O [Ganetespib (STA9090)] | 70.5% | 73.7% | 78.5% | 83.4% | 81.7% | 90% | 66.4% | 75.8% | – | – | – | –
2 | CC(C)c1cc(-c2n[nH]c(=O)n2-c2ccc3c(ccn3C)c2)c(O)cc1O [Ganetespib] | – | – | – | – | – | – | – | – | 93% | 2.43% | 9.72% | –
3 | CCNC(=O)c1noc(-c2cc(C(C)C)c(O)cc2O)c1-c1ccc(CN2CCOCC2)cc1 [Luminespib (AUY-922)] | 93.8% | 103% | 86.8% | 97.5% | 113% | 98.1% | 98.8% | 106% | – | – | – | % Enzyme Activity (relative to DMSO controls) (382 unique human kinases [1]): 90.56%; % Enzyme Activity (relative to DMSO controls) (382 unique human kinases [2]): 101.81%; % Enzyme Activity (relative to DMSO controls) (382 unique human kinases [3]; CDK1/cyclin B, 10 uM): 86.64%; % Enzyme Activity (relative to DMSO controls) (382 unique human kinases [3]; [10]): 96.86%; % Enzyme Activity (relative to DMSO controls) (382 unique human kinases [3]; [11]): 108.79%; % Enzyme Activity (relative to DMSO controls) (382 unique human kinases [4]): 97.70%; % Enzyme Activity (relative to DMSO controls) (382 unique human kinases [5]): 96.57%; % Enzyme Activity (relative to DMSO controls) (382 unique human kinases [6]): 105.31%
4 | CCNC(=O)c1noc(-c2cc(C(C)C)c(O)cc2O)c1-c1ccc(CN2CCOCC2)cc1 [Luminespib] | – | – | – | – | – | – | – | – | 96.8% | 6.74% | 9.81% | % Enzyme Activity (relative to DMSO controls) (382 unique human kinases [7]): 96.29%; % Enzyme Activity (relative to DMSO controls) (382 unique human kinases [8]): 6.11%; % Enzyme Activity (relative to DMSO controls) (382 unique human kinases [9]): 9.69%
